{"source": "patent US20250325499A1", "about": "“IMMUNO-ABLATION TREATMENT FOR SOLID TUMORS” (Northwestern University, priority 2022, published 2025)", "key": {"N1S1 cells [1]": {"system": "N1S1 cells", "test": "Cellular uptake of curcumin (confocal images, flow cytometry)", "experimental": "Briefly, the N1S1 cells (1×10^5/mL) were cultured in a confocal dish (MatTek, 35 mm dish with 14 mm glass bottom). The cellular nucleus was stained with DAPI. Cell membranes were stained with Dil red (D282) following the protocol from ThermoFisher. […] The cells were then fixed by 4% paraformaldehyde and visualized with a confocal microscope (Nikon AIRS).\n(§4) N1S1 cells were seeded onto the six-well plate (2×10^5/well). […] After washing the cells with PBS, they were fixed with 4% formalin at room temperature for 15 minutes. The results were examined by flow cytometry."}, "GPX-4": {"system": "GPX-4", "protocol": "(§1) N1S1 cells were seeded in the 8 cm culture dishes and cultured at 5% CO2, 37° C. overnight. The cells were treated with various groups for […]: ethanol (25, 20, 15, 10, and 5%) for 4, 12, and 24 h, and 15% ethanol+Cur1, 10% ethanol+Cur1, 15% ethanol+Cur2, 10% ethanol+Cur2, 15% ethanol+Cur3, and 10% ethanol+Cur3 for 24 h. […] No treatment of N1S1 was used as control. The cell lysates were collected and analyzed by Western blotting according to the manufacturer's instructions. Antibodies were used listed as below: GPX4 Rabbit anti-Human, Mouse, Rat, Polyclonal, Invitrogen™, catalog number: PIPA579321, dilution 0.1-0.5 μg/mL; p-STAT3 Rabbit mAb, cell signaling, catalog number: 9145, dilution 1:2000; p-p65 Rabbit mAb, cell signaling, catalog number: 3033, dilution 1:1000; PD-L1 Polyclonal Antibody, Invitrogen™, catalog number: PA5-20343, dilution 0.5-2 μg/mL; β-Actin (8H10D10) Mouse mAb (HRP Conjugate), cell signaling, catalog number: 12262, dilution 1:1000.\nWestern blot assay was then used to identify specific molecules associated with cancer cell response to the ethanol treatments. […] However, relatively low ethanol concentrations (10, 5, and 1%) increased the GPX-4 level at 12 h post-treatment compared to 4 h post-treatment, indicating a defensive response to the oxidative stress caused by ethanol. […] This is in agreement with the results of the cell viability and Annexin-V/PI assays (FIG. 1)."}, "p-p65": {"system": "p-p65", "test": "Western blot of p-p65 in N1S1 hepatoma cells", "type": "cell-based", "details": "ethanol 10, 5 and 1%", "protocol": "as §1\n(§2) Western blot assay was then used to identify specific molecules associated with cancer cell response to the ethanol treatments. […] However, relatively low ethanol concentrations (10, 5, and 1%) increased the GPX-4 level at 12 h post-treatment compared to 4 h post-treatment, indicating a defensive response to the oxidative stress caused by ethanol. […]"}, "[2]": {"system": "N1S1 HCC tumors in rat liver", "test": "In vivo immune status of right-side tumors by flow cytometry", "details": "8 days post treatment", "source_text": "To test in vivo tumor neutrophil cell populations, rats were sacrificed, and tumors were harvested at 8 days post treatment and examined by flow cytometry after immunofluorescence staining with anti-CD45-BV605, anti-Granulocytes-PE, and anti-CD11b/c-PerCP/eF710. To determine the intra-tumoral infiltration of CD8+ (CD3+CD4-CD8+), lymphocytes were stained with anti-CD45-BV605, anti-CD3-FITC, anti-CD11b/c-PerCP/eF710, anti-CD4-APC/Cy7, anti-CD8-V450, and anti-IFN-gamma-AF647. To determine the intra-tumoral infiltration of CD4+ (Treg), lymphocytes were stained with anti-CD45-BV605, anti-CD3-FITC, anti-CD11b/c-PerCP/eF710, anti-CD4-APC/Cy7, anti-CD8-V450, anti-CD25-PE, and anti-Foxp3-APC. All antibodies were diluted with the ratio of 1:100 and signal color beads (OneComp eBeads™ Compensation Beads) and unstained bead were used for compensation.\n(§3) The rats in the control group were only inoculated in the right lobe of the liver with 5 million non-treated N1S1 cells. The right-side tumors (arrow in FIG. 5A) were established for testing abscopal effect. These tumors were collected for an immune status assay. The tumor in the control group was used as the baseline."}, "N1S1 cells [3]": {"system": "N1S1 cells", "experimental": "as §4"}, "PD-L1": {"system": "PD-L1", "test": "Western blot / flow cytometry of PD-L1 in N1S1 hepatoma cells", "type": "cell-based", "details": "ethanol 10, 5 and 1%", "protocol": "as §1, §2"}, "p-STAT3": {"system": "p-STAT3", "test": "Western blot of p-STAT3 in N1S1 hepatoma cells", "type": "cell-based", "details": "ethanol 10, 5 and 1%", "protocol": "as §1, §2"}, "[4]": {"system": "N1S1 HCC tumors in rat liver", "test": "In vivo abscopal effect of ethanol-curcumin treated N1S1 cells, tumor volume by MRI", "details": "left lobe inoculated with treated N1S1 cells (10% ethanol or 10% ethanol plus Cur2 0.5% w/v) mixed with non-treated cells, MRI 8-day post-inoculation", "source_text": "as §3"}, "N1S1 cells [5]": {"system": "N1S1 cells", "test": "Cell viability assay (CCK-8)", "type": "cell-based", "experimental": "N1S1 cells (1×10^4/mL) were seeded onto 96-well plates. […] Then the cells were washed with PBS and replenished with fresh media. After 24 h or 48 hr incubation, the cells viability was measured with CCK-8 assay."}}, "data": [{"compound": "COc1cc(/C=C/C(=O)CC(=O)/C=C/c2ccc(O)c(OC)c2)ccc1O", "note": "[curcumin, (1E,6E)-1,7-bis(4-hydroxy-3-methoxyphenyl)hepta-1,6-diene-3,5-dione]", "values": [{"measurement": "cellular uptake of curcumin (green fluorescence signal)", "setting": "N1S1 cells [1]; higher concentration of ethanol in ethanol-curcumin solution", "value": "higher cellular uptake"}, {"measurement": "time curcumin maintained in N1S1 hepatoma cells", "setting": "N1S1 cells [1]; uptake amplified by the ethanol solution", "value": "at least 48 h"}]}, {"compound": "CCO", "note": "[ethanol]", "values": [{"measurement": "GPX-4 level at 12 h compared to 4 h post-treatment", "setting": "GPX-4; ethanol 10, 5 and 1%", "value": "increased"}, {"measurement": "expression of GPX-4 at 24 h post-treatment", "setting": "GPX-4; ethanol 10, 5 and 1%, 24 h", "value": "reduced to normal levels"}, {"measurement": "GPX-4 level", "setting": "GPX-4; ethanol 25, 20 and 15%, 4 h, 12 h and 24 h", "value": "consistently low"}, {"measurement": "p-p65 activation", "setting": "p-p65", "value": "consistent activation"}, {"measurement": "IL-17 T cells in right-side tumor, difference among groups", "setting": "[2]", "value": "no significant difference"}, {"measurement": "neutrophil population in right-side tumor compared to control", "setting": "[2]", "value": "no significant difference"}, {"measurement": "population of Tregs in right-side tumor compared to control group", "setting": "[2]", "value": "decreased population"}, {"measurement": "early apoptosis and late apoptosis populations (Annexin-V/PI)", "setting": "N1S1 cells [3]; 10-min coincubation, various ethanol concentrations, found even at 0 h", "value": "Dosage-dependent increase"}, {"measurement": "live cell populations at 48 h", "setting": "N1S1 cells [3]; ethanol 15%, 10%, 5%, 1%, 48 h", "value": "higher live cell populations"}, {"measurement": "late apoptosis population at 48 h compared to 0 h and 24 h", "setting": "N1S1 cells [3]; ethanol 25% and 20%, 10-min coincubation", "value": "decreased late apoptosis population"}, {"measurement": "live cell populations (Annexin-V negative and PI negative)", "setting": "N1S1 cells [3]; ethanol 25% and 20%, all time points (0, 24, 48 h)", "value": "remained low"}, {"measurement": "PD-L1 expression", "setting": "PD-L1", "value": "upregulation"}, {"measurement": "p-STAT3 activation", "setting": "p-STAT3", "value": "consistent activation"}, {"measurement": "average tumor volume of right-side HCC tumors", "setting": "[4]", "value": "about 130 mm^3"}, {"measurement": "cell-killing effect on N1S1 hepatoma cells (CCK-8 cell viability)", "setting": "N1S1 cells [5]; ethanol 15% to 1%, 5-min and 10-min coincubation", "value": "modest cell-killing effect"}, {"measurement": "growth inhibition of N1S1 hepatoma cells (CCK-8 cell viability)", "setting": "N1S1 cells [5]; ethanol 25% and 20%, 5-min and 10-min coincubation, 24 h and 48 h post-treatment", "value": "efficient growth inhibition"}, {"measurement": "liver cancer cell N1S1 growth", "setting": "N1S1 cells [5]; ethanol 25% to 5%, 10 min coincubation", "value": "inhibits"}, {"measurement": "cell viability at 48 h post-treatment", "setting": "N1S1 cells [5]; lower ethanol concentrations, 5-min and 10-min coincubation, 48 h vs 24 h", "value": "recovery of cell viability"}]}]}
